According to ChEMBL document CHEMBL1122114:

What was measured:
[1] = target: Dihydrofolate reductase (Lactobacillus casei) (UniProt P00381); settings: Lacticaseibacillus casei
Description: Concentration of inhibitor required to decrease binding of [3H]MTX radioligand to Lactobacillus casei dihydrofolate reductase by 50%.

[2] = target: Dihydrofolate reductase (Lactobacillus casei) (UniProt P00381); settings: Lacticaseibacillus casei; remark: listed apart in the source
Description: Tested for 50% reversible inhibition of Lactobacillus casei dihydrofolate reductase (spectrophotometric assay).

[3] = target: T1, Dihydrofolate reductase (Mus musculus) (UniProt P00375); settings: L1210
T1 sequence (whole entry): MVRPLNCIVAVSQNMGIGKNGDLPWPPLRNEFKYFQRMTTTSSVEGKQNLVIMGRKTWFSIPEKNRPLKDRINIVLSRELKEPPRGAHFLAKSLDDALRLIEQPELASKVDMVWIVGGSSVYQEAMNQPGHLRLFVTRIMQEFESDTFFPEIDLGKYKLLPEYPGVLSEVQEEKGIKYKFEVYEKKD
Description: Concentration of inhibitor to decrease binding of [3H]MTX radioligand to Dihydrofolate reductase from L1210 cells by 50%.

Dihydrofolate reductase (Lactobacillus casei), sequence (P00381 whole entry): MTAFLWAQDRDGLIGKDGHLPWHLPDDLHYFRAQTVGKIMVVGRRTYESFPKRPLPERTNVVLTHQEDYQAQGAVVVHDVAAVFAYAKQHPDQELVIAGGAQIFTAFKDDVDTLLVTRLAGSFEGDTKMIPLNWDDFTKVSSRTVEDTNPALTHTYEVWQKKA

| ID50 [1] | ID50 [2] | ID50 [3] | Compound |
| --- | --- | --- | --- |
| 122 nM | 23 nM | 11 nM | CN(Cc1cnc2nc(N)nc(N)c2n1)c1ccc(C(=O)NC(CCCCN)C(=O)O)cc1 (centres undefined) |
| 45 nM | 14 nM | 11 nM | CN(Cc1cnc2nc(N)nc(N)c2n1)c1ccc(C(=O)NC(CCCCNC(=O)OCc2ccccc2)C(=O)O)cc1 (centres undefined) |
| 31 nM | 4.5 nM | 9.8 nM | CN(Cc1cnc2nc(N)nc(N)c2n1)c1ccc(C(=O)NC(CCCCNC(=O)CI)C(=O)O)cc1 (centres undefined) |
